In publication PMC5369193, “Development and validation of a high-throughput calcium mobilization assay for the orphan receptor GPR88” (Journal of Biomedical Science, 2017):
“Also recorded” adds a separate entry of the source. Read-outs that look alike come from different tables or passages of the source.

Legend:
human GPR88 [1] = target: T1, human GPR88 (Homo sapiens, UniProt Q9GZN0); assay: 96-well calcium mobilization assay in stable PPLS-HA-GPR88-Gαqi5-CHO cells; type: cell-based
human GPR88 [2] = target: T1, human GPR88; type: cell-based; conditions: 10 μM final
human GPR88 [3] = target: T1, human GPR88; assay: 384-well no-wash FLIPR calcium mobilization assay in PPLS-HA-GPR88-Gαqi5-CHO cells; type: cell-based; conditions: 10 μM, 2% DMSO, one representative plate
GPR88 [4] = system: GPR88; parameters: method as in PMID 24793972; conditions: GloSensor cAMP assay, stable HEK293-GPR88-pGloSensor22F cells; read-out: EC50, inhibition of isoproterenol-stimulated cAMP accumulation; cited from earlier work
GPR88 [5] = system: GPR88; parameters: method as in PMID 27499251; conditions: LANCE Ultra cAMP assay, stable PPLS-HA-GPR88 CHO cells; cited from earlier work
P-glycoprotein = system: P-glycoprotein; parameters: method as in PMID 25754495; conditions: cited from earlier work
human GPR88 [6] = target: T1, human GPR88; assay: Calcium mobilization in CHO-RD-HGA16 (Gαq16) cells transiently transfected with GPR88; type: cell-based; parameters: host or cells: CHO-RD-HGA16 cells stably expressing Gαq16, transient transfection; conditions: 10 μM final, compared with Gαq16 mock cells; listed as (1R,2R)-2-PCCA
GPR88 [7] = system: GPR88; parameters: method as in PMID 24793972; conditions: cited from earlier work
GPR88 [8] = system: GPR88; parameters: method as in PMID 25690789, PMID 27956039; conditions: cited from earlier work
[9] = read-out: pEC50 (EC50, nM), NA class (converted), stable PPLS-HA-GPR88-Gαqi5-CHO cells, two independent experiments in duplicate
[10] = stable PPLS-HA-GPR88-Gαqi5-CHO cells

T1 sequence (Q9GZN0 whole entry): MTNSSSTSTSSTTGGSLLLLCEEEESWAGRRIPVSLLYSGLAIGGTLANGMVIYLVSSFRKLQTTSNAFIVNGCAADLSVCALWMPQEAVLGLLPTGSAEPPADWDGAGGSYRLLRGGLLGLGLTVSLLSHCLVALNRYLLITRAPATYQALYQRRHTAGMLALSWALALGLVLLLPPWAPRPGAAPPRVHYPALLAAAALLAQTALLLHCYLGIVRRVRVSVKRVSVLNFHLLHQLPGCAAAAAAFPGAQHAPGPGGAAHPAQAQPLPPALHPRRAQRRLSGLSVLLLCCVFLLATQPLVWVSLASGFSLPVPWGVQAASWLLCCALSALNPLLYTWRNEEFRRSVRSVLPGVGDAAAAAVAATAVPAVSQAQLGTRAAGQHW

## CC[C@H](C)[C@H](N)CN(C(=O)[C@@H]1C[C@H]1c1ccccc1)c1ccc(-c2ccc(C(N)=O)cc2)cc1 [Compound 1d]
Human GPR88 [1]; [9]
  EC50: > 10000 nM
Human GPR88 [1]; [10]
  agonist activity in words: loss of activity

## CCCc1ccc(-c2ccc(N(C[C@H](N)CC(C)C)C(=O)[C@@H]3C[C@H]3c3ccccc3)cc2)cc1 [Compound 2b]
Human GPR88 [1]
  EC50: 2630 nM
Human GPR88 [1]; compared with 2a
  loss of potency on changing S- to R-configuration of the amino group: 2 fold

## CCCc1ccc(-c2ccc(N(C[C@@H](N)[C@@H](C)CC)C(=O)[C@@H]3C[C@H]3c3ccccn3)cc2)cc1 [Compound 1a, (1R,2R)-2-(pyridin-2-yl)cyclopropanecarboxylic acid ((2S,3S)-2-amino-3-methylpentyl)-(4’-propylbiphenyl-4-yl)amide]
Human GPR88 [1]
  shape of concentration-response curve: […]
Human GPR88 [1]; 10 μM final, 2% final DMSO
  decrease of maximum response at 2% final DMSO: 1.4 fold
Human GPR88 [1]; working clone
  signal window: […]
Human GPR88 [2]; 48 h after transfection
  specific response compared to Gαqi5 mock cells: 2.3 fold
Human GPR88 [2]; compared with Gαqi5 mock cells
  GPR88-specific calcium response in Gαqi5 system: did elicit a specific response
Human GPR88 [3]
  average signal: 1830 RFU
GPR88 [4]
  EC50: […]
GPR88 [5]
  EC50: […]
P-glycoprotein
  P-glycoprotein substrate: it is a P-glycoprotein substrate
Human GPR88 [6]
  GPR88-specific calcium response in Gαq16 system: does not elicit a GPR88-specific response; also recorded: did not elicit a GPR88-specific response

## CCCc1ccc(-c2ccc(N(C[C@@H](N)CC(C)C)C(=O)[C@@H]3C[C@H]3c3ccccc3)cc2)cc1 [Compound 2a]
Human GPR88 [1]
  EC50: 1320 nM

## CCCc1ccc(-c2ccc(N(C[C@@H](N)[C@@H](C)CC)C(=O)[C@@H]3C[C@H]3c3ccccn3)cc2)cc1 [Compound 2-PCCA]
GPR88 [7]
  calcium mobilization in GPR88 cells: does not induce calcium mobilization in GPR88 cells

## CC[C@H](C)[C@H](N)CN(C(=O)[C@@H]1C[C@H]1c1ccccc1)c1ccc(-c2ccc(C3CCCCC3)cc2)cc1 [Compound 1c]
Human GPR88 [1]
  EC50: 794 nM

## CCCc1ccc(-c2ccc(N(C[C@@H](N)[C@@H](C)CC)C(=O)[C@H]3C[C@@H]3c3ccccc3)cc2)cc1 [Compound 3]
Human GPR88 [1]
  EC50: > 10000 nM
Human GPR88 [1]; [10]
  agonist activity in words: inactive

## CCCc1ccc(-c2ccc(N(C[C@@H](N)[C@@H](C)CC)C(=O)[C@@H]3C[C@H]3c3ccccc3)cc2)cc1 [Compound 1b]
Human GPR88 [1]
  EC50: 1260 nM
Human GPR88 [1]; EC50 comparison
  fold less potent than (1R,2R)-2-PCCA: approximately 2.5 fold

## CCCc1ccc(-c2ccc(N(CCCC(C)C)C(=O)[C@@H]3C[C@H]3c3ccccc3)cc2)cc1 [Compound 2c]
Human GPR88 [1]; [9]
  EC50: > 10000 nM
Human GPR88 [1]; [10]
  agonist activity in words: completely inactive

## CCCC(C)COc1ccc([C@H](CN)NC(=O)[C@@H](C)c2ccccc2)cc1 (stereo partly drawn) [Compound 2-AMPP, (2S)-N-((1R)-2-amino-1-(4-(2-methylpentyloxy)phenyl)ethyl)-2-phenylpropanamide]
GPR88 [8]
  activation of GPR88: shown to activate GPR88
